Measured values as given in patent US20050090669A1, “Aminoalcohol derivatives as beta-3 adrenergic receptor agonists” (priority 2002, published 2005).

Test system: Increase in Intravesical Pressure Induced by Carbachol in Anesthetized Dog
Assay: Effect on the increase in intravesical pressure induced by carbachol in anesthetized dog
Type: in vivo
Conditions: 0.032 mg/kg intravenously, 30 minutes before carbachol (1.8 μg/kg); female Beagle dogs under halothane anesthesia
Description: Effect on the Increase in Intravesical Pressure Induced by Carbachol in Anesthetized Dog
Female Beagle dogs weighing 8.0-15.0 kg were fasted for 24 hours and maintained under halothane anesthesia. A 12 F Foley catheter was lubricated with water soluble jelly, inserted into the urethral orifice and advanced approximately 10 cm until the balloon tip was placed well inside the bladder. The balloon was then inflated with 5 ml of room air and catheter slowly withdrawn just part the first resistance that is felt at the bladder neck. Urine was completely drained out through the catheter, and 30 ml of biological saline was infused. The catheter was connected to pressure transducer, and intravesical pressure (IVP) was continuously recordered. The test compound was administered intravenously at 30 minutes before the administration of carbachol (1.8 μg/kg). Percent inhibition of IVP increase by test compound was calculated by dividing IVPa (IVP increase induced by carbachol after test compound administaration) by IVPb (IVP increase induced by carbachol just before test compound administration).

For `COc1ccc(Oc2ccc3c(c2)C[C@@H](NC[C@H](O)c2ccc(Cl)cc2)CC3)cc1C(=O)O.Cl` [Test Compound (1), 5-[[(7S)-7-[[(2R)-2-(4-Chlorophenyl)-2-hydroxyethyl]-amino]-5,6,7,8-tetrahydro-2-naphthalenyl]oxy]-2-methoxybenzoic Acid Hydrochloride], the “Percent inhibition of IVP increase” value was 54%.
